Assay results: the NIST ThermoML archive (doi:10.1016/j.jct.2017.11.003)
Numbers after ± are expanded uncertainties.

Test: xn = mol fraction of the nth substance listed
Details: 100 kPa, Liquid; for speed of sound: Frequency=2 MHz, Linear variable-path acoustic interferometer; for mass density: Vibrating tube method

Cc1cccc(Cl)c1 [3-chlorotoluene] + CCCCCCCCCO
Details	mass density, 293.15 K [kg/m3]	mass density, 298.15 K [kg/m3]	mass density, 303.15 K [kg/m3]	mass density, 308.15 K [kg/m3]	speed of sound, 293.15 K [m/s]	speed of sound, 298.15 K [m/s]	speed of sound, 303.15 K [m/s]	speed of sound, 308.15 K [m/s]
x1 = 0.0967	844 ± 4	841 ± 4	838 ± 4	834 ± 4	1374.3 ± 4	1357.5 ± 4	1345.4 ± 4	1320.9 ± 4
x1 = 0.1893	861 ± 4	858 ± 4	854 ± 4	850 ± 4	1366.3 ± 4	1348.2 ± 4	1335.6 ± 4	1310.1 ± 4
x1 = 0.2985	883 ± 4	879 ± 4	875 ± 4	871 ± 4	1355.3 ± 4	1336.2 ± 4	1323 ± 4	1297.4 ± 4
x1 = 0.3926	902 ± 4	898 ± 4	894 ± 4	890 ± 4	1345 ± 4	1325.6 ± 4	1310.9 ± 4	1286 ± 4
x1 = 0.4834	923 ± 4	919 ± 4	914 ± 4	910 ± 4	1335.2 ± 4	1315.2 ± 4	1300 ± 4	1275.7 ± 4
x1 = 0.5953	950 ± 4	945 ± 4	941 ± 4	937 ± 4	1323.7 ± 4	1303.7 ± 4	1288.3 ± 4	1264.9 ± 4
x1 = 0.6918	975 ± 4	970 ± 4	966 ± 4	961 ± 4	1315.7 ± 4	1296 ± 4	1280.3 ± 4	1257.6 ± 4
x1 = 0.7946	1004 ± 4	1000 ± 4	995 ± 4	990 ± 4	1310.2 ± 4	1291.2 ± 4	1274.7 ± 4	1254 ± 4
x1 = 0.8963	1036 ± 4	1031 ± 4	1027 ± 4	1022 ± 4	1308.7 ± 4	1290.7 ± 4	1273.6 ± 4	1253.9 ± 4
x1 = 1	1072 ± 4	1067 ± 4	1063 ± 4	1058 ± 4	1313.8 ± 4	1296.5 ± 4	1279.5 ± 4	1261.2 ± 4

Cc1ccccc1Cl [2-chlorotoluene] + CCCCCCCCCO
Details	mass density, 293.15 K [kg/m3]	mass density, 298.15 K [kg/m3]	mass density, 303.15 K [kg/m3]	mass density, 308.15 K [kg/m3]	speed of sound, 293.15 K [m/s]	speed of sound, 298.15 K [m/s]	speed of sound, 303.15 K [m/s]	speed of sound, 308.15 K [m/s]
x1 = 0.0846	843 ± 4	840 ± 4	836 ± 4	832 ± 4	1375.9 ± 4	1360.1 ± 4	1348.7 ± 4	1325.2 ± 4
x1 = 0.1974	864 ± 4	861 ± 4	857 ± 4	853 ± 4	1367.7 ± 4	1351.5 ± 4	1339.2 ± 4	1315.5 ± 4
x1 = 0.2911	883 ± 4	880 ± 4	876 ± 4	872 ± 4	1359.7 ± 4	1342.9 ± 4	1329.6 ± 4	1305.8 ± 4
x1 = 0.3964	906 ± 4	902 ± 4	898 ± 4	894 ± 4	1349.9 ± 4	1331.9 ± 4	1318.6 ± 4	1294 ± 4
x1 = 0.4896	928 ± 4	924 ± 4	920 ± 4	915 ± 4	1341.3 ± 4	1322.3 ± 4	1308.2 ± 4	1284 ± 4
x1 = 0.5943	954 ± 4	950 ± 4	946 ± 4	941 ± 4	1331.5 ± 4	1312.2 ± 4	1298 ± 4	1273.4 ± 4
x1 = 0.6918	981 ± 4	976 ± 4	972 ± 4	967 ± 4	1324 ± 4	1304.4 ± 4	1290 ± 4	1265.8 ± 4
x1 = 0.7948	1011 ± 4	1007 ± 4	1002 ± 4	997 ± 4	1318 ± 4	1298.5 ± 4	1284 ± 4	1260.8 ± 4
x1 = 0.898	1045 ± 4	1040 ± 4	1036 ± 4	1031 ± 4	1315.2 ± 4	1297 ± 4	1280.7 ± 4	1259.9 ± 4
x1 = 1	1082 ± 4	1077 ± 4	1073 ± 4	1068 ± 4	1317 ± 4	1299.7 ± 4	1283.9 ± 4	1265.8 ± 4

Cc1ccc(Cl)cc1 [4-chlorotoluene] + CCCCCCCCCO
Details	mass density, 293.15 K [kg/m3]	mass density, 298.15 K [kg/m3]	mass density, 303.15 K [kg/m3]	mass density, 308.15 K [kg/m3]	speed of sound, 293.15 K [m/s]	speed of sound, 298.15 K [m/s]	speed of sound, 303.15 K [m/s]	speed of sound, 308.15 K [m/s]
x1 = 0.0835	842 ± 4	839 ± 4	835 ± 4	832 ± 4	1376.5 ± 4	1358.3 ± 4	1346.4 ± 4	1322.8 ± 4
x1 = 0.1905	862 ± 4	858 ± 4	855 ± 4	851 ± 4	1369.2 ± 4	1347.9 ± 4	1334.9 ± 4	1311.7 ± 4
x1 = 0.2888	881 ± 4	877 ± 4	873 ± 4	869 ± 4	1360.5 ± 4	1337.3 ± 4	1323.5 ± 4	1300.5 ± 4
x1 = 0.3983	904 ± 4	900 ± 4	896 ± 4	891 ± 4	1350 ± 4	1324.8 ± 4	1310.6 ± 4	1287.6 ± 4
x1 = 0.4948	925 ± 4	921 ± 4	917 ± 4	912 ± 4	1340.2 ± 4	1313.6 ± 4	1298.7 ± 4	1276.4 ± 4
x1 = 0.594	949 ± 4	945 ± 4	940 ± 4	935 ± 4	1330 ± 4	1303 ± 4	1287.9 ± 4	1266 ± 4
x1 = 0.6925	974 ± 4	970 ± 4	965 ± 4	960 ± 4	1321 ± 4	1294.2 ± 4	1278.5 ± 4	1257.4 ± 4
x1 = 0.7952	1003 ± 4	999 ± 4	994 ± 4	988 ± 4	1313 ± 4	1287.5 ± 4	1271.4 ± 4	1250.9 ± 3.9
x1 = 0.899	1035 ± 4	1031 ± 4	1025 ± 4	1020 ± 4	1308 ± 4	1284.9 ± 4	1267.7 ± 4	1248.9 ± 3.9
x1 = 1	1069 ± 4	1065 ± 4	1060 ± 4	1054 ± 4	1306.4 ± 4	1288.2 ± 4	1270 ± 3.9	1252.1 ± 3.9

CCCCCCCCCO [nonan-1-ol] + ClCCCl
Details	mass density, 293.15 K [kg/m3]	mass density, 298.15 K [kg/m3]	mass density, 303.15 K [kg/m3]	mass density, 308.15 K [kg/m3]	speed of sound, 293.15 K [m/s]	speed of sound, 298.15 K [m/s]	speed of sound, 303.15 K [m/s]	speed of sound, 308.15 K [m/s]
x2 = 0	828 ± 4	824 ± 4	821 ± 4	818 ± 4	1380.5 ± 4	1364.7 ± 4	1348.1 ± 4	1330.5 ± 4
x2 = 0.0922	845 ± 4	841 ± 4	838 ± 4	834 ± 4	1357.5 ± 4	1341.4 ± 4	1329.7 ± 4	1305.2 ± 4
x2 = 0.2067	869 ± 4	866 ± 4	862 ± 4	858 ± 4	1332.2 ± 4	1315.5 ± 4	1301.2 ± 4	1277.5 ± 4
x2 = 0.2984	892 ± 4	888 ± 4	884 ± 4	880 ± 4	1313.7 ± 4	1296.8 ± 4	1280.6 ± 4	1257.8 ± 4
x2 = 0.406	922 ± 4	918 ± 4	914 ± 4	909 ± 4	1293.1 ± 4	1275.5 ± 4	1258 ± 4	1235 ± 3.9
x2 = 0.4896	950 ± 4	946 ± 4	941 ± 4	936 ± 4	1277.3 ± 4	1260.3 ± 3.9	1242.2 ± 3.9	1219 ± 3.9
x2 = 0.6039	994 ± 4	989 ± 4	984 ± 4	979 ± 4	1258.2 ± 3.9	1240.6 ± 3.9	1221.4 ± 3.9	1199 ± 3.9
x2 = 0.6928	1035 ± 4	1030 ± 4	1025 ± 4	1019 ± 4	1243.5 ± 3.9	1226.4 ± 3.9	1206.5 ± 3.9	1184.8 ± 3.9
x2 = 0.8087	1101 ± 4	1095 ± 4	1089 ± 4	1083 ± 4	1227.5 ± 3.9	1210.5 ± 3.9	1190 ± 3.9	1169 ± 3.9
x2 = 0.9063	1170 ± 4	1163 ± 4	1157 ± 4	1150 ± 4	1216.7 ± 3.9	1199 ± 3.9	1179.2 ± 3.9	1159.9 ± 3.9
